Source: ChEMBL document CHEMBL5338724, “METTL3 from Target Validation to the First Small-Molecule Inhibitors: A Medicinal Chemistry Journey” (J Med Chem, 2023)

Assays:
Caov-3 cell line [1] = experiment: Antiproliferative activity against human Caov-3 cell line assessed as inhibition of cell proliferation and measured after 7 days by CellTiter-Glo assay; type: functional, cell-based; details: Caov-3, 168 h
MOLM-13 [2] = experiment: Antiproliferative activity against human MOLM-13 cells assessed as inhibition of cell proliferation and measured after 7 days by CellTiter-Glo assay; type: functional, cell-based; details: MOLM-13, 168 h
METTL3/METTL14 [3] = molecular target: T1, METTL3/METTL14 (Homo sapiens, UniProt Q86U44); experiment: Inhibition of METTL3/METTL14 (unknown origin) using RNA 5'-GGACUGGACUGGACU-3' as substrate incubated for 2 hrs by LC-MS/MS analysis; type: protein-complex assay
MIA PaCa-2 = experiment: cells; details: Homo sapiens, MIA PaCa-2, 72 h
Huh-7 = experiment: cells; details: Homo sapiens, Huh-7, 72 h
MOLM-13 [4] = experiment: Antiproliferative activity against human MOLM-13 cells assessed as inhibition of cell proliferation incubated for 48 hrs by Cell Titer-Glo reagent assay; type: functional, cell-based; details: MOLM-13, 48 h
[5] = molecular target: N6-adenosine-methyltransferase catalytic subunit (Homo sapiens, UniProt Q86U44); experiment: Inhibition of METTL3 in human MOLM-13 cells assessed as decrease in cellular m6A mRNA level incubated for 24 hrs by NanoDrop spectrophotometer based LC-MS/MS analysis; type: cell-based
METTL3/METTL14 [6] = molecular target: T1, METTL3/METTL14; experiment: Inhibition of METTL3/METTL14 (unknown origin) using biotinylated RNA (UCUGGACUAAA-biotin) and 3H-SAM as substrate preincubated for 5 mins followed by substrate addition and measured after 30 mins by scintillation counter analysis; type: protein-complex assay
METTL3/METTL14 [7] = molecular target: T1, METTL3/METTL14; experiment: Inhibition of METTL3/METTL14 (unknown origin); type: protein-complex assay
MOLM-13 [8] = experiment: Antiproliferative activity against human MOLM-13 cells assessed as inhibition of cell proliferation incubated for 96 hrs by Cell Titer-Glo reagent assay; type: functional, cell-based; details: MOLM-13, 96 h
METTL3/METTL14 [9] = molecular target: T1, METTL3/METTL14; experiment: Competive inhibition of full length human METTL3/METTL14 expressed in Sf9 cells using single strand RNA 5'-AAGAACCGGACUAAGCU-3' and SAM as substrate incubated for 40 mins by HTRF assay
MOLM-13 [10] = experiment: Antiproliferative activity against human MOLM-13 cells assessed as decrease cell proliferation; type: functional, cell-based
Kasumi 1 = experiment: Antiproliferative activity against human Kasumi 1 cells assessed as inhibition of cell proliferation incubated for 120 hrs by CellTiter-Glo assay; type: functional, cell-based; details: Kasumi 1, 120 h
Caov-3 cell line [11] = experiment: Antiproliferative activity against human Caov-3 cell line assessed as inhibition of cell proliferation incubated for 120 hrs by CellTiter-Glo assay; type: functional, cell-based; details: Caov-3, 120 h

IC50 [5]	SMILES	IC50 (MOLM-13 [4])	IC50 (METTL3/METTL14 [6])	IC50 (MOLM-13 [8])	further results
	O=C(NCc1cn2cc(CNCC34CC(F)(C3)C4)ccc2n1)c1cc(=O)n2ccccc2n1				IC50 (Caov-3 cell line [1]): 248 nM; IC50 (MOLM-13 [2]): 657 nM
	O=C(O)[C@H]1O[C@@H](Oc2cc3oc(-c4ccc(O)cc4)cc(=O)c3c(O)c2O)[C@H](O)[C@@H](O)[C@@H]1O [SCUTELLARIN]				IC50 (METTL3/METTL14 [3]): 19200 nM
	O=c1c(O)c(-c2ccc(O)c(O)c2)oc2cc(O)cc(O)c12 [QUERCETIN]				IC50 (MIA PaCa-2): 73500 nM; IC50 (METTL3/METTL14 [3]): 2730 nM; IC50 (Huh-7): 100000 nM
< 1000 nM	CNc1ccc2ccc(CCc3cncc(-n4cc(-c5ccn(C)n5)c5c(N)ncnc54)c3)cc2n1	< 1000 nM	< 10 nM		
	O=C(O)c1ccccc1OCCc1cn(C(c2ccccc2)c2ccccc2)c2ccc(-c3ccccc3)cc12				IC50 (METTL3/METTL14 [7]): 8630 nM
	Nc1ncnc2c1ncn2C[C@H]1OC[C@@H](O)[C@@H](O)[C@H]1O				IC50 (METTL3/METTL14 [9]): > 250000 nM
	O=C(O)c1ccccc1OCCc1cn(-c2cccc(-c3ccccc3)c2)c2ccc(-c3ccc(F)cc3)cc12				EC50 (MOLM-13 [10]): 29900 nM; IC50 (METTL3/METTL14 [7]): 2740 nM
< 1000 nM	CNc1ccc2ccc(OC[C@H]3O[C@@H](n4cc([C@@H]5CCCO5)c5c(N)ncnc54)[C@@H](F)[C@@H]3O)cc2n1	< 10000 nM	< 10 nM	< 10000 nM	
	Nc1ncnc2c1ccn2[C@@H]1C[C@H](c2ccc3cc(CN4CCC5(CCC5)C4)[nH]c3c2)[C@@H](O)[C@H]1O (single isomer, unassigned)				IC50 (Kasumi 1): 950 nM; IC50 (Caov-3 cell line [11]): 250 nM
	Nc1ncnc2c1c(Cl)cn2[C@@H]1C[C@H](c2ccc3cc(CNCC45CC(F)(C4)C5)[nH]c3c2)[C@@H](O)[C@H]1O				IC50 (Kasumi 1): 950 nM; IC50 (Caov-3 cell line [11]): 250 nM
< 1000 nM	CCc1cc(NCCOC)c2ccc(CCc3cncc(-n4cc(-c5ccn(C)n5)c5c(N)ncnc54)c3)cc2n1		< 10 nM	< 10000 nM	
	Nc1ncnc2c1c(Br)cn2[C@@H]1C[C@H](c2ccc3cc(CN4CCC5(CCC5)C4)[nH]c3c2)[C@@H](O)[C@H]1O (single isomer, unassigned)				IC50 (Kasumi 1): 950 nM; IC50 (Caov-3 cell line [11]): 250 nM
	O=C(O)c1ccccc1OCCc1cn(-c2ccc(-c3ccccc3)cc2)c2ccc(-c3ccc(F)cc3)cc12				EC50 (MOLM-13 [10]): 32500 nM; IC50 (METTL3/METTL14 [7]): 2950 nM
	Nc1ncnc2c1c(-n1cccn1)cn2[C@@H]1O[C@H](COc2ccc3ccc(N4CCC4)nc3c2)[C@@H](O)[C@@H]1F	< 10000 nM	< 10 nM	< 10000 nM	
	COc1cc(-c2cn(Cc3cn4cc(CNCC56CC(F)(C5)C6)ccc4n3)nn2)c2cncn2c1				IC50 (Kasumi 1): 1150 nM; IC50 (Caov-3 cell line [11]): 305 nM
< 1000 nM	CCc1cc(N(C)CCOC)c2ccc(CCc3cncc(-n4cc(-c5ccn(C)n5)c5c(N)ncnc54)c3)cc2n1		< 10 nM	< 10000 nM	
	COc1cc(-c2cn(Cc3cn4cc(CNCC56CC(C5)C6)ccc4n3)nn2)c2cncn2c1				IC50 (Kasumi 1): 419 nM; IC50 (Caov-3 cell line [11]): 110 nM

SMILES	IC50 [5]	IC50 (MOLM-13 [4])	IC50 (METTL3/METTL14 [6])	IC50 (MOLM-13 [8])	further results
Cn1ccc(-c2cn([C@@H]3O[C@H](COc4ccc5ccc(NC6CCC6)nc5c4)[C@@H](O)[C@@H]3F)c3ncnc(N)c23)n1	< 1000 nM	< 10000 nM	< 10 nM	< 10000 nM	
Cn1ccc(-c2cn([C@H]3C[C@H](O)[C@@H](COc4ccc5ccc(N6CCC6)nc5c4)O3)c3ncnc(N)c23)n1	< 1000 nM	< 10000 nM	< 10 nM	< 10000 nM	
Cn1ccc(-c2cn([C@@H]3O[C@H](COc4ccc5ccc(N6CCC6)nc5c4)[C@@H](O)[C@@H]3F)c3ncnc(N)c23)n1	< 1000 nM	< 10000 nM	< 10 nM	< 10000 nM	
